Reference: US20230331792A1, “NEW MULTI-FUNCTIONAL OLIGOPEPTIDES” (ENLITISA (SHANGHAI) PHARMACEUTICAL CO., LTD., priority 2019, published 2023)
Bridge positions count the residues as written; N and C are the ends. Square brackets hold non-standard residues; d marks the D form. Ends that are not written are not given here. I, II: the chains in the order shown. Dopa = N[C@@H](Cc1ccc(O)c(O)c1)C(=O)O; Hyp = O=C(O)[C@@H]1C[C@@H](O)CN1

Experiments:
SD rats = test: Experimental gastric ulcer model (anhydrous alcohol); type: in vivo; conditions: omeprazole 2 mg/mL, 4 mg/kg oral gavage once per day for 30 days
Experimental: SPF grade SD rats were used in this experiment, with 10 rats in each group. According to an evaluation method of health food for gastric ulcer issued by Chinese State Food and Drug Administration, the protective effect of Compound B on acute gastric ulcers induced by anhydrous alcohol was observed after continuous gavage for 30 days.
Omeprazole enteric-coated capsules (20 mg/capsule; Heilongjiang Norgas Pharmaceutical Co., Ltd., China) were opened and the powder was dissolved in water to make a 2 mg/mL solution. Compound B (see Example 7 above) powder was dissolved in water to make two solutions with concentrations of 0.25 mg/mL and 0.75 mg/mL. Administration volumes were […].
All drugs were administrated as shown in Table 13 by oral gavage for 30 consecutive days, once per day. The rats had free access to water. On the 30th day, rats were fasted for 24 hours after the last drug administration. On the 31st day, 1.0 mL/rat of absolute ethanol was given by gavage to each rat in all of the experimental groups except the control group.
1 hour later, all of the rats were sacrificed and dissected to expose the intact stomach, followed by ligation of the pylorus. 10% formaldehyde solution was administered into the stomach by perfusion and fixed for 20 minutes. The stomach was dissociated after fixation and cut open along the greater curvature. The stomach contents were washed off the lining with saline to reveal the gastric mucosa.
The length and width of gastric mucosal bleeding were measured with a Vernier calliper under a stereo microscope or by the naked eye.

[1] = test system: Human Influenza A Virus H1N1; conditions: virus mixed with drug 1 hour, 2-128 μg/mL; Vero cells; viral RNA
C57BL/6 mice = test: Air pouch model (carrageenan-induced acute inflammation); type: in vivo; parameters: key to Inflammation score / Edema score: 1 = mild, 2 = moderate, 3 = severe; conditions: dexamethasone 400 μg/mouse
Experimental: Healthy adult male C57BL/6 mice weighing between 20 and 30 g were supplied by Changzhou Cvens Experimental Animal Co. Ltd. Prior to any experiments being conducted, the mice were housed under standardized conditions (at a constant temperature or 22±2° C., with alternating 12-hour periods of light and darkness), and were fed on a standard mouse diet with water, for about a week. The mice were randomly divided into 9 groups as described in Table 4, with 7 mice in each group.
General anaesthesia was induced using intraperitoneal delivery of 3% chloral hydrate (Sinopharm Chemical Reagent Co., Ltd., Shanghai, China); 1 mL/10 g of body weight). The hair of the entire dorsum was shaved and depilated one day before sterile air injection.
Air pouches were produced by subcutaneous injection of sterile air (5 mL) into the intrascapular area of the mice. After three days, another injection of air (3 mL) was performed to maintain the pouches. In order to induce acute inflammation, three days after the second injection, animals received an injection of sterile carrageenan solution (CP Kelco, Taixing, Jiangsu Province, China; 1%, 0.5 mL; produced by adding 0.1 g of carrageenan powder into a beaker containing 10 mL of 0.9% saline solution and stirring). Mice were pre-treated with test samples or vehicle 1 hour before and 23 hours after the carrageenan injection into the subcutaneous air pouch. Animals were sacrificed 24 hours after the carrageenan injection.
Skin biopsies were taken from the air pouches. A part of the biopsy was fixed in formalin (produced by adding ultra-pure water to 50 mL of a 40% formaldehyde solution (Nanchang Rain Dew Experimental Equipment Co., Ltd., Nanchang, […] Provence, China) up to a total volume of 500 mL) and analyzed by histological embedding in paraffin wax, sectioning and staining.
The histological specimens were analyzed, and an inflammation score and an edema score were estimated. The inflammation scores were estimated by observing heamatoxylin and eosin (HE) stained slices under an optical microscope. Scores (between 1 to 3 points) were given according to the perceived inflammation level (e.g. in cases where only a small amount of inflammatory cells scattered in the area: 1 point was given (mild); in cases where many inflammatory cells were observed: 2 points were given (moderate); and, in cases with diffuse infiltration: 3 points were given (severe)). A similar scoring system was employed for edema levels (3 points for most severe and 1 point for mild) after overall observation.
After conducting some preliminary experiments to validate the model, an experiment was conducted in which mice were treated by administering test samples or vehicle in accordance with Table 4 below. Compound A and Compound B were dissolved in saline at concentrations indicated in Table 4 below (L=low dose, M=medium dose, H=high dose).
Compound A and Compound B were synthesized as described in Examples 8 and 7 above, respectively. The peptide powders were stored at −20° C. prior to use. Dexamethasone (Dex) was obtained from Shanghai Aladdin Bio-Chem Technology Co., Ltd., Shanghai, China.

[2] = Pharmacokinetics of montelukast with and without sMAP; conditions: SD, rat, plasma, 0.2 mg
in vivo = conditions: SD, rat
Experimental: The rats were treated by administering test samples.
The rats were anesthetized by 2% isoflurane inhalation. The rats were placed in the supine position, the rectum end stool was extruded and 75% alcohol cotton ball was used to disinfect the anal periphery skin area.
A 2 mL syringe was used to draw back the air bag cavity to ensure that there was no air in the air bag after water filling. The catheter (2-WAY 8Ch/Fr3-5 mm) was inserted into the rats anus at a depth of about 3 cm (2 cm length from the end of the balloon; the tip of the catheter was cut below the position of the urethral catheter tip, and shortened as much as possible while maintaining the integrity of the air cavity. The guide wire was removed, the urethral catheter was sealed with neutral glass glue while ensuring smooth sealing end to reduce the damage to the rectal mucosa).
While the perianal skin was held to fix the catheter and the gavage needle, 1 mL of water was injected with a 2 mL syringe into the airbag cavity in order to expand it, and the needle was then quickly released to observe whether there was gel leakage.
After injection, adhesive tape was wrapped around the tail root to fix the catheter (the catheter was litigated about 3-5 cm from the anus, then cut off after ligation, and an adhesive tape was wrapped around the tail root for fixation. The fixation of the pressure-sensitive adhesive tape is based on the standard of non-looseness of the urinary catheter, which should not be too tight and cause discomfort for animals to bite. The catheter should be fixed by tape twice: the catheter should be knotted the first time, while the remaining catheter should be fixed at the end of the tail the second time. The 3 cm scale on the catheter should be at the anus, and the catheter should not be taken out when the knot is tied). The rats were put back into the cage after administration.
An anal plug was maintained in the rectum for 4 h to extend the retention time of the drug in the animal body. The anal plug dropped within 4 h after the drug was administered, and the approximate time period of the drop was recorded.
Blood samples were processed by coating all centrifuge tubes with EDTA-K2 and storing them either in a refrigerator (2-8° C.) or a cooler filled with ice, protected from light prior to use; the blood that was collected was transferred into the centrifuge tubes and stored in ice box protected from light after having been mixed manually by reversing the tubes at least 5 times. The samples were subsequently centrifuged at 1800 g for 10 minutes at 2 to 8° C. within 2 hours from blood collection. After the centrifugation, the collected plasma samples were transferred into newly labeled centrifuge tubes, aliquoted into two sets, and stored below −70° C. away from light.
AUC, Cmax, Tmax, and any other parameters as needed, were calculated using WinNonlin software. Microsoft Office Excel was used for data statistical analysis, including mean, standard deviation (SD), and coefficient of variation (CV), etc. The difference in pharmacokinetic parameters between the two groups was compared.

person two = test: Ulcerative colitis, patient case; type: in vivo, human; conditions: oral 5-aminosalicylic acid for 3 days
Excerpt: person two was diagnosed with an acute attack of ulcerative colitis. […] After this, they were given the same Compound C gel as described in Example 41 above, at the same dose, 3 times over the first two days. The frequent with which they had to go to the toilet reduced to 3 to 4 times a day.

## COc1ccc2[nH]c([S+]([O-])Cc3ncc(C)c(OC)c3C)nc2c1 (centres unmarked) [Omeprazole, reference compound]
SD rats
  Damage score: 20

## I: AKPS[Dopa][Hyp]T[Dopa][Hyp]KKK / II: AKPS[Dopa][Hyp]T[Dopa][Hyp]KK / III: AKPS[Dopa][Hyp]T[Dopa][Hyp]K / IV: AKPS[Dopa][Hyp]T[Dopa][Hyp]K (amide I:11-IV:C, I:12-II:C, II:11-III:C) [Compound C, [(Ala-Lys-Pro-Ser-DOPA-Hyp-Thr-DOPA-Hyp-Lys)2-Lys]2-Lys]
[1]
  IC50 (virus inhibition rate): > 32 µg/mL

## C[C@@H]1C[C@H]2[C@@H]3CCC4=CC(=O)C=C[C@]4(C)[C@@]3(F)[C@@H](O)C[C@]2(C)[C@@]1(O)C(=O)CO [Dex, Dexamethasone, reference compound]
C57BL/6 mice
  Sum of the scores: 2.14
C57BL/6 mice; 1 h before and 23 h after carrageenan, histology, score 1-3
  Inflammation score: 0.57
C57BL/6 mice; histology, score 1-3
  Edema score: 1.57

## CC(C)(O)c1ccccc1CC[C@@H](SCC1(CC(=O)O)CC1)c1cccc(/C=C/c2ccc3ccc(Cl)cc3n2)c1 [Montelukast, montelukast sodium]
[2]; female
  AUC(0-t): 229 ng·h/mL
  Cmax: 156 ng/mL
  Tmax: 0.5 h
  half-life: 2.3 h
[2]; male
  AUC(0-t): 238 ng·h/mL
  Cmax: 151 ng/mL
  Tmax: 0.5 h
  half-life: 1.8 h

## Nc1ccc(O)c(C(=O)O)c1 [Mesalazine, 5-aminosalicylic acid]
In vivo; female
  AUC(0-t): 38900 ng·h/mL
  Cmax: 13800 ng/mL
  Tmax: 1.83 h
In vivo; male
  AUC(0-t): 56100 ng·h/mL
  Cmax: 17500 ng/mL
  Tmax: 1.67 h
Person two
  symptoms of ulcerative colitis: symptoms did not change
